Laboratory results reported in the supplement of paper PMC10307832.

How the values were obtained:
Test in all cases: relative viability (nuclei count vs DMSO), 5 days (fraction); higher = more cells survive
GSK126 + Tozasertib = compound: CC[C@H](C)N1C=C(C2=C(C=C(C=C21)C3=CN=C(C=C3)N4CCNCC4)C(=O)NCC5=C(C=C(NC5=O)C)C)C [GSK126] + Cc1cc(Nc2cc(N3CCN(C)CC3)nc(Sc3ccc(NC(=O)C4CC4)cc3)n2)n[nH]1 [Tozasertib] (partner 0.1 µM)
Outline: (§1)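 Each reported value is a median over duplicate plates. It expresses relative viability: treated-well nuclei count divided by vehicle-well nuclei count. Lung cancer cell lines in 1536-well plates were dosed by pin tool a day after seeding, alone with one drug or with a fixed anchor-drug dose plus five library-drug doses (not always all listed) in √10 steps, and nuclei were counted after 5 days.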

MLN4924 + Palbociclib = compound: NS(=O)(=O)OC[C@@H]1C[C@@H](n2ccc3c(N[C@H]4CCc5ccccc54)ncnc32)C[C@@H]1O [MLN4924] + CC(=O)c1c(C)c2cnc(Nc3ccc(N4CCNCC4)cn3)nc2n(C2CCCC2)c1=O [Palbociclib] (partner 0.5 µM)
Outline: as §1

MLN4924 + Alpelisib = compound: NS(=O)(=O)OC[C@@H]1C[C@@H](n2ccc3c(N[C@H]4CCc5ccccc54)ncnc32)C[C@@H]1O [MLN4924] + Cc1nc(NC(=O)N2CCC[C@H]2C(N)=O)sc1-c1ccnc(C(C)(C)C(F)(F)F)c1 [Alpelisib] (partner 2 µM)
Outline: as §1

MLN4924 + Decitabine = compound: NS(=O)(=O)OC[C@@H]1C[C@@H](n2ccc3c(N[C@H]4CCc5ccccc54)ncnc32)C[C@@H]1O [MLN4924] + Nc1ncn([C@H]2C[C@H](O)[C@@H](CO)O2)c(=O)n1 [Decitabine] (partner 2 µM)
Outline: as §1

Row | Cell Line | relative viability (GSK126 + Tozasertib; first compound 0.08 µM) | relative viability (GSK126 + Tozasertib; first compound 0.253 µM) | relative viability (GSK126 + Tozasertib; first compound 0.8 µM) | relative viability (GSK126 + Tozasertib; first compound 2.53 µM) | relative viability (GSK126 + Tozasertib; first compound 8 µM) | relative viability (MLN4924 + Palbociclib; first compound 0.04 µM) | relative viability (MLN4924 + Palbociclib; first compound 0.1265 µM) | relative viability (MLN4924 + Palbociclib; first compound 0.4 µM) | relative viability (MLN4924 + Palbociclib; first compound 1.265 µM) | relative viability (MLN4924 + Palbociclib; first compound 4 µM) | relative viability (MLN4924 + Alpelisib; first compound 0.04 µM) | relative viability (MLN4924 + Alpelisib; first compound 0.1265 µM) | relative viability (MLN4924 + Alpelisib; first compound 0.4 µM) | relative viability (MLN4924 + Alpelisib; first compound 1.265 µM) | relative viability (MLN4924 + Alpelisib; first compound 4 µM) | relative viability (MLN4924 + Decitabine; first compound 0.04 µM) | relative viability (MLN4924 + Decitabine; first compound 0.1265 µM) | relative viability (MLN4924 + Decitabine; first compound 0.4 µM) | relative viability (MLN4924 + Decitabine; first compound 1.265 µM) | relative viability (MLN4924 + Decitabine; first compound 4 µM)
1 | RERF-LC-KJ | 0.562 | 0.449 | 0.489 | 0.485 | 0.357 | 0.875 | 0.363 | 0.184 | 0.152 | 0.218 | 0.89 | 0.815 | 0.206 | 0.183 | 0.237 | 0.592 | 0.497 | 0.24 | 0.182 | 0.236
2 | NCI-H2126 | 1 | 0.835 | 0.871 | 0.838 | 0.812 | 0.403 | 0.424 | 0.397 | 0.327 | 0.237 | 0.781 | 0.718 | 0.647 | 0.338 | 0.273 | 0.526 | 0.49 | 0.425 | 0.293 | 0.231
3 | SK-LU-1 | 0.293 | 0.357 | 0.366 | 0.321 | 0.331 | 0.467 | 0.43 | 0.253 | 0.195 | 0.202 | 1.1 | 0.572 | 0.281 | 0.145 | 0.194 | 0.645 | 0.661 | 0.309 | 0.29 | 0.24
4 | HARA | 0.131 | 0.0947 | 0.0975 | 0.0847 | 0.106 | 0.324 | 0.233 | 0.169 | 0.0893 | 0.147 | 0.716 | 0.576 | 0.249 | 0.0868 | 0.0836 | 0.496 | 0.379 | 0.379 | 0.203 | 0.156
5 | EPLC-272H | 0.316 | 0.306 | 0.211 | 0.306 | 0.189 | 0.29 | 0.281 | 0.102 | 0.232 | 0.181 | 1.05 | 0.957 | 0.131 | 0.136 | 0.195 | 0.325 | 0.284 | 0.0744 | 0.108 | 0.106
6 | SK-MES-1 | 0.852 | 0.988 | 0.937 | 0.813 | 0.81 | 0.294 | 0.207 | 0.225 | 0.128 | 0.203 | 0.99 | 0.882 | 0.87 | 0.232 | 0.185 | 0.405 | 0.339 | 0.233 | 0.16 | 0.205
7 | COR-L 105 | 0.355 | 0.31 | 0.402 | 0.312 | 0.264 | 0.414 | 0.395 | 0.337 | 0.321 | 0.34 | 0.836 | 0.702 | 0.413 | 0.257 | 0.31 | 0.658 | 0.523 | 0.397 | 0.263 | 0.328
8 | NCI-H727 | 0.633 | 0.648 | 0.586 | 0.676 | 0.438 | 0.681 | 0.584 | 0.566 | 0.476 | 0.535 | 0.474 | 0.292 | 0.245 | 0.194 | 0.213 | 0.783 | 0.823 | 0.546 | 0.493 | 0.502
